# Measurements: US8202834B2, “Fat regulation” (FibroGen, Inc., priority 2002, dated 2012)
# Experiments:
# leptin = assay: Leptin secretion by preadipocytes in differentiation media; assay type: cell-based, human; conditions: 25 or 50 μM, up to 12 days, vs vehicle, FIG. 1B
# Experimental: In a separate experiment, preadipocytes were plated in 24 well plates at 45,000 cells per well and cultured for 3 days in preadipocyte media (Zen-Bio). The media was then changed to differentiation media (Zen-Bio) and cells were treated with either vehicle control (0.5% DMSO) or compound B at 25 or 50 μM for up to 12 days. Half of the culture media was exchanged every 3 days and cell-free culture supernatants were generated and analyzed for levels of leptin secretion using a QUANTIKINE immunoassay (R&D Systems) according to the manufacturer's instructions.
# DEC1/Stra13 [1] = assay: DEC1/Stra13 expression time course in liver after oral gavage; assay type: in vivo; conditions: mouse liver, 100 mg/kg oral gavage, 4-72 h; FIG. 3A
# Experimental: (§1) The ability of the present compounds and methods to regulate fat metabolism, in particular, to increase expression of factors involved in fat transport, utilization, and storage, was analyzed as follows. To determine gene induction patterns over time, twenty four Swiss Webster male mice (30-32 g) were obtained from Simonsen, Inc. and treated by oral gavage with a 4 ml/kg volume of either 0.5% carboxymethyl cellulose (CMC; Sigma-Aldrich, St. Louis Mo.) (0 mg/kg) or […] compound B (25 mg/ml in 0.5% CMC) (100 mg/kg). At 4, 8, 16, 24, 48, or 72 hours after the final dose, animals were anesthetized with isoflurane. The mice were then sacrificed and tissue samples of kidney, liver, brain, lung, and heart were isolated and stored in RNALATER solution (Ambion) at −80° C.
# To further investigate the effect of the methods and compounds of the present invention on expression of genes associated with fat metabolism and adipogenesis, the experiments performed as described in Example 3 above were analyzed for specific adipogenic factors. […] DEC1/Stra13 is known to repress expression of PPAR-γ2 nuclear hormone receptor, which is necessary for adipocyte differentiation. […]
# DEC1/Stra13 [2] = assay: DEC1/Stra13 expression in tissues after 4 days of oral dosing; assay type: in vivo, mouse; conditions: oral gavage once per day for 4 days, FIG. 3B
# Experimental: (§2) To further investigate the effect of the methods and compounds of the present invention on expression of adipogenic factors, twelve Swiss Webster male mice (30-32 g) obtained from Simonsen, Inc. were treated by oral gavage once per day for 4 days with 4 ml/kg volume of either 0.5% CMC (0 mg/kg/day), 25 mg/ml compound D in 0.5% CMC (100 mg/kg/day), or 7.5 mg/ml and 25 mg/ml of compound B in 0.5% CMC (30 and 100 mg/kg/day, respectively). Four hours after the final dose, animals were anesthetized, sacrificed, and approximately 150 mg of adipose, heart, kidney, liver, lung, and muscle were isolated and stored in RNALATER solution (Ambion) at −20° C. RNA isolation and gene expression analysis was performed as described in Example 3 above.
# PPAR-γ = PPAR-γ expression in tissue after 4 days of oral dosing; assay type: in vivo, mouse; conditions: cardiac tissue; oral gavage once per day for 4 days; FIG. 3C
# Experimental: as §2
# HIF-1α = HIF-1α in nuclear fractions, TRANSAM HIF-1 ELISA; assay type: cell-based, human; conditions: 293A and Hep3B cells, vs vehicle; FIG. 8B
# Description: Compounds of the present invention for use in the present methods stabilize HIFα, inhibit HIF hydroxylase activity and/or HIFα hydroxylation, etc. Thus, compounds can be identified, e.g., by their ability to stabilize HIFα. Stabilization of HIFα using compounds and methods of the present invention was examined as follows. Human cells derived from adenovirus-transformed fetal kidney epithelium (293A), cervical epithelial adenocarcinoma (HeLa), hepatocellular carcinoma (Hep3B), squamous carcinoma (SSC-25), and lung fibroblast (HLF) tissues (see, e.g., American Type Culture Collection, Manassas Va.; and Qbiogene, Carlsbad Calif.) were separately seeded into 100 mm culture dishes and grown at 37° C., 20% O2, 5% CO2 in media as follows: HeLa cells in Dulbecco's Modification of Eagle's Medium (DMEM), 2% fetal bovine serum (FBS); HLF cells in DMEM, 10% FBS; 293A cells in DMEM, 5% FBS; and Hep3B cells in Minimal Essential Medium (MEM), Earle's BSS (Mediatech Inc., Herndon Va.), 2 mM L-glutamine, 0.1 mM non-essential amino acids, 1 mM sodium pyruvate, 10% FBS. When cell layers reached confluence, the media was replaced with OPTI-MEM media (Invitrogen Life Technologies, Carlsbad Calif.) and cell layers were incubated for approximately 24 hours in 20% O2, 5% CO2 at 37° C. A compound of the invention (compound B, D, F, G, or H) or vehicle control (0.5 to 1% DMSO) was then added to existing medium, and incubation was continued overnight.
# Alternatively, nuclear fractions were prepared using a nuclear extract kit (Active Motif, Carlsbad Calif.) and were analyzed for HIF-1α using a TRANSAM HIF-1 ELISA kit (Active Motif) according to the manufacturer's instructions.
# aldolase = assay: Aldolase expression in 293A cells, Western blot; assay type: cell-based, human
# Experimental: In a further analysis of the methods and compounds effect on glucose regulation, human 293A cells were plated confluent in 35 mm culture dishes and cultured for 1 day at 37° C., 10% CO2 in DMEM containing 5% FBS and 1% penicillin-streptomycin. The media was changed to OPTI-MEM media (Invitrogen Life Technologies) and incubation was continued for an additional 18 to 24 hours. Vehicle control or compound B was then added to the media and cells were incubated for an additional 24, 48 or 72 hours. Plates were placed on ice, culture supernatant was removed, and lysis buffer-1 (LB-1: 10 mM Tris pH 7.4, 1 mM EDTA, 150 mM sodium chloride, 0.5% IGEPAL) was added. Cell lysates were harvested, cytosolic fractions were collected, and cytosolic proteins were separated using SDS-PAGE as described above. After separation, the proteins were transferred to a PVDF membrane at 400 mA for 1.5 hours at 4° C. The membrane was incubated in blocking buffer for 2 hours or overnight and washed once with T-TBS prior to addition of anti-aldolase antibody diluted to working concentration in blocking buffer. After overnight incubation with gentle agitation at 4° C., membranes were washed 4 times with T-TBS, followed by incubation for one hour at room temperature with conjugated secondary antibody diluted in blocking buffer. […]
# [3] = tested on: PFK-P, PFK-L, enolase-1, GluT-1, lactate dehydrogenase-1, aldolase-1, hexokinase-1; assay: Expression of glucose regulation genes in kidney, liver and lung after oral gavage; assay type: in vivo; conditions: mouse kidney, liver, lung; 100 mg/kg oral gavage; FIGS. 10A-10C
# Experimental: as §1
# In the time course, most mRNA levels peaked early following administration of compound, then returned to control levels after 24 to 48 hours. […] These differences relate, in part, to the different degree to which glycolytic activity provides a critical source of energy for the respective tissue, especially during times of stress.
compound,measurement,setting,value
"O=C(O)CNC(=O)c1nc(Cl)c2ccccc2c1O [compound B, [(1-Chloro-4-hydroxy-isoquinoline-3-carbonyl)-amino]-acetic acid]",leptin secretion,leptin,dose-dependent increase in leptin secretion
same,expression of DEC1/Stra13,DEC1/Stra13 [1],initially increased
same,DEC1/Stra13 expression,"DEC1/Stra13 [2]; adipose, kidney, liver and muscle, 4 h after final dose",increased DEC1/Stra13 expression
same,DEC1/Stra13 expression,DEC1/Stra13 [2]; lung and heart,increased DEC1/Stra13 expression
same,PPAR-γ expression,PPAR-γ,decreased PPAR-γ expression
same,stabilization and accumulation of HIFα,HIF-1α,stabilization and accumulation of HIFα
same,aldolase expression,"aldolase; 293A cells, 24, 48 and 72 hours, FIG. 9B",increased over time
same,β-tubulin expression,"aldolase; 293A cells, specificity control",no increases
same,expression of genes encoding enzymes involved in glucose regulation,[3],increased in a coordinated fashion
